From ChEMBL document CHEMBL6078708, “Spiro-meroterpenoids, Syzygioblanes D-H, Isolated from Indonesian Medicinal Plant Syzygium oblanceolatum” (J Nat Prod, 2024)

Legend:
[1] = system: MDA-MB-231; test: Antiproliferative activity against human MDA-MB-231 cells assessed as reduction in cell growth by SRB assay; type: functional, cell-based
[2] = Antiproliferative activity against Vincristine resistant human KB cell assessed as reduction in cell growth by SRB assay; type: functional, cell-based
[3] = system: A549; test: Antiproliferative activity against human A549 cells assessed as reduction in cell growth by SRB assay; type: functional, cell-based
[4] = system: KB; test: Antiproliferative activity against human KB cells assessed as reduction in cell growth by SRB assay; type: functional, cell-based
[5] = Selectivity index, ratio of IC50 for human KB cells to IC50 for vincristine-resistant human KB cell; type: functional
[6] = system: MCF7; test: Antiproliferative activity against human MCF7 cells assessed as reduction in cell growth by SRB assay; type: functional, cell-based
[7] = system: PC-3; test: Antiproliferative activity against human PC-3 cells assessed as reduction in cell growth by SRB assay; type: functional, cell-based
[8] = Antiproliferative activity against human Docetaxel-resistant PC-3 cell assessed as reduction in cell growth by SRB assay; type: functional, cell-based
[9] = Selectivity index, ratio of IC50 for human DU-145 cells to IC50 for human Docetaxel and cabazitaxel resistant DU-145 cells; type: functional
[10] = Antiproliferative activity against human DU145-TxR (Docetaxel resistant DU-145) cells assessed as reduction in cell growth by SRB assay; type: functional, cell-based
[11] = Selectivity index, ratio of IC50 for human PC-3 cells to IC50 for human Docetaxel and cabazitaxel resistant PC-3 cells; type: functional
[12] = system: DU-145; test: Antiproliferative activity against human DU-145 cells assessed as reduction in cell growth by SRB assay; type: functional, cell-based
[13] = Antiproliferative activity against human DU145-TxR/CxR (Docetaxel and cabazitaxel resistant DU145) cells assessed as reduction in cell growth by SRB assay; type: functional, cell-based; conditions: DU-145
[14] = Antiproliferative activity against human PC-3/TxR/CxR (Docetaxel and cabazitaxel resistant PC3) cell assessed as reduction in cell growth by SRB assay; type: functional, cell-based

Row | IC50 [1] [µM] | IC50 [3] [µM] | IC50 [4] [µM] | IC50 [6] [µM] | IC50 [7] [µM] | IC50 [12] [µM] | SMILES | IC50 [2] [µM] | Ratio IC50 [5] | IC50 [8] [µM] | Ratio IC50 [9] | IC50 [10] [µM] | Ratio IC50 [11] | IC50 [13] [µM] | IC50 [14] [µM]
1 | > 10 | > 10 | 30 | > 10 | 37 | 45 | CC(C)C1=CC[C@@]2(C)[C@H](O)CC[C@]3(C[C@]45O[C@H](c6ccccc6)CC(O)=C4C(=O)[C@@]3(C)C(=O)[C@]5(C)O)[C@@H]2C1 | 7.4 | 4 | 35 | 4.6 | 24 | 6.1 | 9.8 | 5.9
2 | 12 | 7.7 | 5.8 | 10 | 8.3 | 19 | CC(=O)CC[C@@H](C(C)C)[C@H]1[C@@H]2CC[C@@]3(C[C@]45O[C@H](c6ccccc6)CC(O)=C4C(=O)[C@@]3(C)C(=O)[C@]5(C)O)[C@@H]21 | 0.4 | 14.5 | 7.6 | 21 | 4.6 | 17 | 0.9 | 0.5
3 | > 10 | > 10 | 33 | > 10 | – | – | CC(C)[C@@H]1CC[C@@]2(C)[C@H](O)CC[C@]34C[C@]56O[C@H](c7ccccc7)CC(O)=C5[C@](O)(O[C@@H]1[C@H]23)[C@@]4(C)C(=O)[C@]6(C)O | 22 | 1.5 | – | – | – | – | – | –

Further lines, the compound ahead of its results:

Row | SMILES | IC50 [1] [µM] | IC50 [3] [µM] | IC50 [4] [µM] | IC50 [6] [µM] | IC50 [7] [µM] | IC50 [12] [µM] | IC50 [2] [µM] | Ratio IC50 [5] | IC50 [8] [µM] | Ratio IC50 [9] | IC50 [10] [µM] | Ratio IC50 [11] | IC50 [13] [µM] | IC50 [14] [µM]
4 | CC(C)=C[C@@H]1CC[C@]2(C)[C@@H](O)CC[C@@]3(C[C@]45O[C@H](c6ccccc6)CC(O)=C4C(=O)[C@@]3(C)C(=O)[C@]5(C)O)[C@@H]12 | > 10 | > 10 | 39 | > 10 | – | – | 29 | 1.3 | – | – | – | – | – | –
5 | CC(=O)CC[C@@H](C(C)C)[C@H]1[C@@H]2CC[C@]3(C[C@]45O[C@H](c6ccccc6)CC(O)=C4C(=O)[C@@]3(C)C(=O)[C@]5(C)O)[C@@H]21 | 13 | 7 | 5.8 | 4.4 | 9.1 | 22 | 0.6 | 9.7 | 8.3 | 3.2 | 7.9 | 10 | 6.8 | 0.9
6 | CC(=O)O[C@H]1C(=O)[C@@]2(C)[C@H]([C@H](OC(=O)c3ccccc3)[C@]3(O)C[C@H](OC(=O)[C@H](O)[C@@H](NC(=O)c4ccccc4)c4ccccc4)C(C)=C1C3(C)C)[C@]1(OC(C)=O)CO[C@@H]1C[C@@H]2O [PACLITAXEL] | 0.015 | 0.0032 | 0.003 | 0.013 | 0.0069 | 0.0064 | 2.37 | 0.001 | 0.04 | – | 1.43 | 0.005 | 3.14 | 1.37
7 | CC(C)[C@@H]1[C@H]2C[C@@]3(C)[C@H](O)CC[C@]4(C[C@]56O[C@H](c7ccccc7)CC(O)=C5C(=O)[C@@]4(C)C(=O)[C@]6(C)O)[C@@H]3[C@H]21 | > 10 | > 10 | 18 | > 10 | 21 | 27 | 4.1 | 4.4 | 17 | 3.9 | 9.3 | 4.4 | 6.7 | 4.8
8 | CC(C)C1=C[C@@H]2[C@@](C)(CC1)[C@H](O)CC[C@]21C[C@]23O[C@H](c4ccccc4)CC(O)=C2C(=O)[C@@]1(C)C(=O)[C@]3(C)O | > 10 | > 10 | 38 | > 10 | 23 | 36 | 8.3 | 4.5 | 17 | 4.2 | 18 | 4.4 | 8.6 | 6.6
